For experiment [1], the target named is T1, Tyrosine-protein kinase JAK3 (Homo sapiens, UniProt P52333).
T1 sequence (P52333 whole entry): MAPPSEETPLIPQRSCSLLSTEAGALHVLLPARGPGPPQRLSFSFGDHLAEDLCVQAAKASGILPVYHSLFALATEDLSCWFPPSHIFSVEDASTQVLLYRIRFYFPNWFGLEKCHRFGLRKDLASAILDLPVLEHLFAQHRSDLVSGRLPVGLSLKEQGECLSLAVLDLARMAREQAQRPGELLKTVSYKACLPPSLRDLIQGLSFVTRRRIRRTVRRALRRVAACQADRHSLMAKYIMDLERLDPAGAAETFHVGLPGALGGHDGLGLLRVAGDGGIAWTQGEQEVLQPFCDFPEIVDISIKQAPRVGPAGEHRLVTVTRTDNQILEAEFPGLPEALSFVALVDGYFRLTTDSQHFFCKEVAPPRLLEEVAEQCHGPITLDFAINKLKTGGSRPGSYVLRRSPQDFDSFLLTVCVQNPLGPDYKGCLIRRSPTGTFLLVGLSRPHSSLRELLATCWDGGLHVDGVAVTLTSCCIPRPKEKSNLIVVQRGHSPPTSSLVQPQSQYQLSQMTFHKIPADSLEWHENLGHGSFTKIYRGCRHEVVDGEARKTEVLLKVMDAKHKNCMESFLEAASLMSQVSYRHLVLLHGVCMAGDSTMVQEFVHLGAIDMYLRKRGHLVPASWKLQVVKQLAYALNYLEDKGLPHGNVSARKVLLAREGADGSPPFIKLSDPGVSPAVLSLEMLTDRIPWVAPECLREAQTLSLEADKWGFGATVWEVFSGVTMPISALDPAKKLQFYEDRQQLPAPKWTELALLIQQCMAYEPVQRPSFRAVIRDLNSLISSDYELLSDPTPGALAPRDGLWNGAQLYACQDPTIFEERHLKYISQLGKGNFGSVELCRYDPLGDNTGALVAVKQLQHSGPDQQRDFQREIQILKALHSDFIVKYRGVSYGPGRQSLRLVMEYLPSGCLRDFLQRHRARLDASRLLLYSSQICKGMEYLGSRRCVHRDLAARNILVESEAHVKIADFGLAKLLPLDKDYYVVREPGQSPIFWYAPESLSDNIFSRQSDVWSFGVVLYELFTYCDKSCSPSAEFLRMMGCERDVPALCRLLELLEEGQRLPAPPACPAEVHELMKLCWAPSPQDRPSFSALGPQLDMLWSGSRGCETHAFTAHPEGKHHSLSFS
Nature of the experiment: Inhibition of Jak3.

In experiment [2] the target is Tyrosine-protein kinase Lck (Homo sapiens, UniProt P06239). Nature of the experiment: Inhibition of Lck by HTRF assay.
Sequence of Tyrosine-protein kinase Lck (P06239 whole entry): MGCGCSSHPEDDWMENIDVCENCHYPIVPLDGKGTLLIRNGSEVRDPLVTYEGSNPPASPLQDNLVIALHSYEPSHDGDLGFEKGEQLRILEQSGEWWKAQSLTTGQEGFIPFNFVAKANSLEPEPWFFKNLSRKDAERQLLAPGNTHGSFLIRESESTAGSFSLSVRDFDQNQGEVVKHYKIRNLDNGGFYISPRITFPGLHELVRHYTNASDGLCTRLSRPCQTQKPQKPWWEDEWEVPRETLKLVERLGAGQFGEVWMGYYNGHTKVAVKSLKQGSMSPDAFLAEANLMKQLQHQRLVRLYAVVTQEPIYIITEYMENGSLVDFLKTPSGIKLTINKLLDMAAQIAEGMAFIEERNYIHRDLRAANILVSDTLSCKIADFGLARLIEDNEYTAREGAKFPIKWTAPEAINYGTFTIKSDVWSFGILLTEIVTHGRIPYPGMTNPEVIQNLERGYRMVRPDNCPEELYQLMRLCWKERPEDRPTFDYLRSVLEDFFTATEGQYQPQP
In another experiment the target is Angiopoietin-1 receptor (Homo sapiens, UniProt Q02763). As to the kind of experiment: Inhibition of Tie2.
Sequence of Angiopoietin-1 receptor (Q02763 whole entry): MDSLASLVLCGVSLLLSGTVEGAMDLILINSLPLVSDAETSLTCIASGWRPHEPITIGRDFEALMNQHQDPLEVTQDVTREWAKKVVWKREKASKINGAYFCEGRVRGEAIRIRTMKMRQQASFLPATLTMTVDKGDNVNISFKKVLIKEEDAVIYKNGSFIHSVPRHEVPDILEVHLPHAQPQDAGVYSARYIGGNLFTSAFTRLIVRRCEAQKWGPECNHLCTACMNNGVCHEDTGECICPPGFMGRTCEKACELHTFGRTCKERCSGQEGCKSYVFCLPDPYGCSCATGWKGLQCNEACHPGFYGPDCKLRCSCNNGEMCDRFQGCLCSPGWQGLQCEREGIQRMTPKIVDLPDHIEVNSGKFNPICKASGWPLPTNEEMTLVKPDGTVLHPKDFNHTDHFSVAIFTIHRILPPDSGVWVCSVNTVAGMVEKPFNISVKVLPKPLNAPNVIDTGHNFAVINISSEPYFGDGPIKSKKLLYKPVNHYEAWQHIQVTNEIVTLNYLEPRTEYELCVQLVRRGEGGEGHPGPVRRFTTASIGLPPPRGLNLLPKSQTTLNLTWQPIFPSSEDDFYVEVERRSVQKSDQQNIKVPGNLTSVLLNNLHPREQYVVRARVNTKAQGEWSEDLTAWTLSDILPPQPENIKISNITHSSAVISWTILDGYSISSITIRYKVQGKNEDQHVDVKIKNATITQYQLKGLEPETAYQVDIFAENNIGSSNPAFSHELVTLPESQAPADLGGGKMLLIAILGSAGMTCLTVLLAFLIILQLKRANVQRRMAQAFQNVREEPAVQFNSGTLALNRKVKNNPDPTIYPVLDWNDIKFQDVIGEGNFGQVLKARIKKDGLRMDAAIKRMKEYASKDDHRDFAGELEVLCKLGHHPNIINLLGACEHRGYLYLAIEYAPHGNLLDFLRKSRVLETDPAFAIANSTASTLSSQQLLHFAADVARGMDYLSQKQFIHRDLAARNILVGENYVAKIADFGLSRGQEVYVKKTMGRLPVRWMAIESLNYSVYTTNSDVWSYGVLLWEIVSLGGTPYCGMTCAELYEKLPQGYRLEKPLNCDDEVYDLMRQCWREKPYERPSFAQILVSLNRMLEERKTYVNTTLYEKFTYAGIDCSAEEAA
Experiment [3] addresses Vascular endothelial growth factor receptor 2 (Homo sapiens, UniProt P35968). As to the kind of experiment: Inhibition of KDR.
Another experiment concerns T-cell. As to the kind of experiment: Inhibition of T cell activation in human mixed lymphocyte reaction. Type of experiment: functional, cell-based.
The target in experiment [4] is Mitogen-activated protein kinase 14 (Homo sapiens, UniProt Q16539). As to the kind of experiment: Inhibition of p38alpha.
Sequence of Mitogen-activated protein kinase 14 (Q16539 whole entry): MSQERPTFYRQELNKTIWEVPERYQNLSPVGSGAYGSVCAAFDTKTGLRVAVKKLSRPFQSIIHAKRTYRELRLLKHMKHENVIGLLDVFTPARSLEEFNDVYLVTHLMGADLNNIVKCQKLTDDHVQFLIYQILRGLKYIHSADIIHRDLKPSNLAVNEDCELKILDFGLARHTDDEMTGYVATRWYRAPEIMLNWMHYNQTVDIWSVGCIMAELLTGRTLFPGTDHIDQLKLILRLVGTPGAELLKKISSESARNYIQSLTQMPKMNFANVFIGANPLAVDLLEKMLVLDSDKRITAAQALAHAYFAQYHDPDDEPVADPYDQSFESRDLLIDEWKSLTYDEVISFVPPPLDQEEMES

A value given as a limit tells only on which side of the number the result lay.

Sequence of Vascular endothelial growth factor receptor 2 (P35968 whole entry): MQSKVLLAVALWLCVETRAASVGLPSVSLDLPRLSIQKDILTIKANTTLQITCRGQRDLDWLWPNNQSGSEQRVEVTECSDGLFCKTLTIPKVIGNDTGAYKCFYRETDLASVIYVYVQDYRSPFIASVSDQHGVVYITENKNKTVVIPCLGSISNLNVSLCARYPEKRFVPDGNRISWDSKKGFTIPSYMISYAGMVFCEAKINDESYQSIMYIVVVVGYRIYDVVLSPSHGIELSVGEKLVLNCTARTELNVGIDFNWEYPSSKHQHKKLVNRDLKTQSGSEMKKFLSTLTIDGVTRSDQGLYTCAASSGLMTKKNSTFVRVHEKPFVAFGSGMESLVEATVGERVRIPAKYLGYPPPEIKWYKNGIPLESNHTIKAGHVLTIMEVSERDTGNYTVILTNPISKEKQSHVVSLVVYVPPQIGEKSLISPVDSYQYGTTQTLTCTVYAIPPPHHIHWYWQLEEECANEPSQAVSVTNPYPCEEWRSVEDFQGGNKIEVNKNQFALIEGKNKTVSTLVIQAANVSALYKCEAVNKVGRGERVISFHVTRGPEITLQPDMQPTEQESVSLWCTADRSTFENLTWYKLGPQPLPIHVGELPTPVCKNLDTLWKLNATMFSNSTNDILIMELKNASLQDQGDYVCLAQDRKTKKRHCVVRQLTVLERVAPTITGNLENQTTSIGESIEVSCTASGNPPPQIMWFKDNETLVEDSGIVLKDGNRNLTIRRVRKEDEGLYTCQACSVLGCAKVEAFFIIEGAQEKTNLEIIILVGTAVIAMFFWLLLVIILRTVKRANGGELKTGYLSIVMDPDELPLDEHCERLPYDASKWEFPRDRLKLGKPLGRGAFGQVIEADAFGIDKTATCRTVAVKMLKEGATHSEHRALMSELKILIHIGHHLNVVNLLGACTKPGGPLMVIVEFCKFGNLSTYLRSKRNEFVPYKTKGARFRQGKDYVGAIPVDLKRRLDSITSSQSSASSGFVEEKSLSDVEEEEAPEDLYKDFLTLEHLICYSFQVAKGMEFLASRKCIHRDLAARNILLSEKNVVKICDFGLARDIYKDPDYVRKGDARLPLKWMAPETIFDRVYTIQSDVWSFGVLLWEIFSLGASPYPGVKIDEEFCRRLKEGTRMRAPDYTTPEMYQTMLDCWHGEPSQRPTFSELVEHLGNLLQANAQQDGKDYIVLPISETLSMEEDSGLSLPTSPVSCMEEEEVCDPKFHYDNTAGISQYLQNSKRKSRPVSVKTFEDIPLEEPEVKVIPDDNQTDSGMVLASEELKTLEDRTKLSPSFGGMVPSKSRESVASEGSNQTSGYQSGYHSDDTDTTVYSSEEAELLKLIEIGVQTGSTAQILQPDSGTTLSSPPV

Turning to `COc1nc(NC2CCN(C)CC2)ncc1C(=O)Nc1cc(C(=O)Nc2cccc(C(F)(F)F)c2)ccc1C`, the IC50 is greater than 25 µM in experiment [1], 0.101 µM in experiment [2], greater than 25 µM at Angiopoietin-1 receptor and greater than 25 µM in experiment [3].
On to `COc1nc(NCCCCN(C)C)ncc1C(=O)Nc1cc(C(=O)Nc2cccc(C(F)(F)F)c2C)ccc1C`, for which the IC50 is greater than 25 µM in experiment [1], 0.045 µM in experiment [2], greater than 25 µM at Angiopoietin-1 receptor and greater than 25 µM in experiment [3].
As for `CNc1ncc(C(=O)Nc2cc(C(=O)Nc3cccc(C(F)(F)F)c3)ccc2C)c(Oc2ccccc2)n1`, the IC50 in experiment [1] was greater than 25 µM; in experiment [2] it was 0.025 µM; in the experiment on T-cell, greater than 10 µM; at Angiopoietin-1 receptor, greater than 25 µM; in experiment [3] it was greater than 25 µM.
Regarding `COc1nc(Nc2ccc(N3CCN(C)CC3)cc2)ncc1C(=O)Nc1cc(C(=O)Nc2cccc(C(F)(F)F)c2F)ccc1C`, the IC50 in experiment [1] turned out to be 0.334 µM; in experiment [2], 0.0006 µM; in the experiment with T-cell, 0.107 µM; on Angiopoietin-1 receptor, 3.44 µM; in experiment [3], 0.255 µM; in experiment [4] it was 0.856 µM.
On to `Cc1ccc(C(=O)Nc2cccc(C(F)(F)F)c2)cc1NC(=O)c1cnc(NCCN2CCOCC2)nc1Oc1ccccc1`, for which the IC50 was greater than 25 µM in experiment [1]; 0.041 µM in experiment [2]; greater than 10 µM in the experiment on T-cell; greater than 25 µM against Angiopoietin-1 receptor; greater than 25 µM in experiment [3].
Turning to `COc1nc(NCCCN2CCN(C)CC2)ncc1C(=O)Nc1cc(C(=O)Nc2cccc(C(F)(F)F)c2C)ccc1C`, the IC50 in experiment [1] was greater than 25 µM; in experiment [2], 0.019 µM; in the experiment on T-cell it was 2.71 µM; against Angiopoietin-1 receptor it was greater than 25 µM; in experiment [3], greater than 25 µM.
For `CNc1ncc(C(=O)Nc2cc(C(=O)Nc3cccc(C(F)(F)F)c3F)ccc2C)c(NC)n1`, the IC50 was greater than 25 µM in experiment [1]; 0.084 µM in experiment [2]; greater than 25 µM against Angiopoietin-1 receptor; 6.68 µM in experiment [3]; 0.0024 µM in experiment [4].
`CNc1ncc(C(=O)Nc2cc(C(=O)Nc3cccc(C(F)(F)F)c3F)ccc2C)c(OC)n1`: the IC50 in experiment [1] was greater than 25 µM; in experiment [2], 0.007 µM; with T-cell it was greater than 10 µM; against Angiopoietin-1 receptor it was greater than 25 µM; in experiment [3], greater than 25 µM; in experiment [4], 0.254 µM.
`COc1nc(NCCN2CCOCC2)ncc1C(=O)Nc1cc(C(=O)Nc2cccc(C(F)(F)F)c2)ccc1C`: the IC50 in experiment [1] was greater than 25 µM; in experiment [2] it was 0.022 µM; with T-cell, 4.92 µM; against Angiopoietin-1 receptor, greater than 25 µM; in experiment [3], 2.03 µM.
Compound `Cc1ccc(C(=O)Nc2cccc(C(F)(F)F)c2)cc1-c1ccc2nc(N)ncc2c1` yielded an IC50 against Angiopoietin-1 receptor of 0.002 µM.
On to `CNc1ncc(C(=O)Nc2cc(C(=O)Nc3cccc(C(F)(F)F)c3C)ccc2C)c(OC)n1`, for which the IC50 in experiment [1] was greater than 25 µM; in experiment [2], 0.044 µM; in the experiment on T-cell, greater than 10 µM; against Angiopoietin-1 receptor it was greater than 25 µM; in experiment [3] it was greater than 25 µM; in experiment [4] it was greater than 10 µM.
Consider `CNc1ncc(C(=O)Nc2cc(C(=O)Nc3cccc(C(F)(F)F)c3)ccc2C)c(OC)n1`, for which the IC50 was greater than 25 µM in experiment [1]; 0.053 µM in experiment [2]; greater than 10 µM in the experiment on T-cell; greater than 25 µM against Angiopoietin-1 receptor; 8.33 µM in experiment [3]; 2.72 µM in experiment [4].
